Experimental data taken from patent publication US8298996B2, “Low toxicity shale hydration inhibition agent and method of use” (M-I L.L.C., priority 2007, dated 2012).
Where two headings read alike, the source gives them in different places.

Key:
[1] = for 10′ Gel / Viscosity (cps) at 3 rpm / YP: after hot rolled at 150° F., about 10 ppb inhibitor in tap water; for shale inhibiting characteristics: summary of Tables 6-9
Procedure: This test procedure uses pint jars that are filled with one barrel equivalent of tap water and about 10 ppb of a shale inhibitor. Tap water was used as a control sample. […] After stirring the samples for about 30 minutes, the rheologies were measured and then the samples were heat aged overnight at about 150° F. After the samples were cooled the rheologies were measured and recorded. This procedure was carried out for each sample until all of the samples were too thick to measure.

luminescent bacteria = conditions: for EC50 (15): reduces light emission by 50% at 15 minutes at 15° C.; for toxicity results: summary of Tables 6-9

Row | Compound | 10′ Gel ([1]; 50 ppb Bentonite) | Viscosity (cps) at 3 rpm ([1]; 50 ppb Bentonite) [cps] | YP ([1]; 50 ppb Bentonite) | 10′ Gel ([1]; 60 ppb Bentonite) | Viscosity (cps) at 3 rpm ([1]; 60 ppb Bentonite) [cps] | YP ([1]; 60 ppb Bentonite) | 10′ Gel ([1]; 70 ppb Bentonite) | Viscosity (cps) at 3 rpm ([1]; 70 ppb Bentonite) [cps] | YP ([1]; 70 ppb Bentonite) | EC50 (15) (luminescent bacteria) [%] | toxicity results (luminescent bacteria) | shale inhibiting characteristics [1]
1 | [Cl-].[K+] [Potassium Chloride, reference compound] | 26 | 12 | 9 | 63 | 48 | 45 | 300 | 143 | 136 |  |  | 
2 | Triethylamine Diethyl Sulfate | 7 | 4 | 6 | 9 | 4 | 8 | 14 | 8 | 45 | 100 | good | good
3 | Triethylamine Dimethyl Sulfate [A (Triethylamine Dimethyl Sulfate)] | 3 | 2 | 4 | 4 | 3 | 4 | 17 | 12 | 48 | 92.16 | good | good
